# Results taken from paper PMC11726677, “Eradication of Therapy-Resistant Cancer Stem Cells by Novel Telmisartan Derivatives” (Journal of Medicinal Chemistry, 2024).
# “And” between values parts separate entries of the source, which are not always exact repeats. Equal entries are not always repeated.
# Legend:
# K562-R cells = assay: Cellular imatinib accumulation assay (U(H)PLC-SIM-MS); type: cell-based, human; details: preincubated 1 h with 10 μM compound, then 1 μM imatinib 2 h
# Description: After treatment, cells were washed, and the resulting cell pellets were lysed in 200 μL of ice-cold methanol. Lysates were incubated on a tube shaker (Thermomixer C, Eppendorf) for 20 min at 4 °C and 1400 rpm, followed by centrifugation (MicroStar 17R, VWR) at 16000g for 5 min at 4 °C. 180 μL of supernatants were separated from the sediment and dried in a rotary vacuum evaporator (Concentrator plus, Eppendorf) and stored at −80 °C until analysis.
# Metabolites were separated using the following gradient: 1% B for 0.2 min, 1% B to 70% B within 0.6 min, 70% B to 90% B within 0.2 min, 90% B for 0.3 min. The UPLC system was coupled to a quadrupole orbitrap mass spectrometer (Exploris 480, Thermo Fischer Scientific) via a HESI electrospray source. […] The spray voltage was set to 3500 V and the ion transfer tube and vaporizer temperatures were set at 350 °C. Sheath gas was used at a flow rate of 60 (arbitrary units (a.u)) and auxiliary gas at a flow rate of 15 (a.u)).
# Raw data processing was performed using TraceFinder General Quan 5.0 (Thermo Scientific, San Jose, CA, USA). The ICIS algorithm was used for peak identification and integration with the following parameters Peak detection strategy: Highest peak; Peak threshold type: Area; Threshold: 1; Smoothing: 3; S/N threshold: 3; Tailing Factor: 8. Peaks were manually adjusted when necessary. […]
# Caco2 cells = assay: Caco2 permeability (bidirectional); type: in vitro ADME; details: pH 7.4, 10 μM; for Caco2 permeability Papp B–A: basolateral to apical
# Description: The medium was changed regularly and on day 20 the permeability study was performed. The monolayers were prepared by rinsing the apical and basolateral surfaces with Hanks Balanced Salt Solution (HBSS) twice at the desired pH and by incubating for 40 min to stabilize the physiological parameters. […] The compounds were diluted with buffer to a concentration of 10 μM (final DMSO concentration ≤1%) and added to the apical or basolateral sides of the cell monolayer. Compound permeability was assessed in duplicates and molecules of known permeability characteristics were used as controls (antipyrine, atenolol, talinolol, and estrone 3-sulfate). To calculate Papp, compound appearance was measured using LC–MS/MS. The efflux ratio was determined for bidirectional assays.
# STAT5 = assay: Jess Simple Western immunoassay of STAT5/pSTAT5 in IGROV-1 SP cells; type: cell-based, human; details: IGROV-1 SP, 10 μM, 72 h
# Description: The impact of STAT5 activation on the mode of action was investigated in selected solid tumor cell lines as well.
# Protein extracts were prepared as previously described.[44] Protein expression was determined using the capillary-based Jess Simple Western detection system (ProteinSimple, BioTechne) according to the manufacturer’s instructions at default settings. […] Horseradish peroxidase (HRP)-conjugated secondary antirabbit antibody, which was included in the Jess Detection Module kit, was used. Data analysis was conducted using Compass for Simple Western 4.0 software (ProteinSimple, BioTechne).
# IGROV-1 SP cells = assay: Chemosensitizing to paclitaxel: metabolic activity of IGROV-1 SP cells (MTT); type: cell-based, human; details: compound 10 μM + PTX 10 nM, 72 h
# Description: The chemosensitizing efficacy was investigated in the ovarian and prostate cancer cell lines using the above-described metabolic activity assay. Paclitaxel (PTX) served as a reference (CTR) in A2780 V SP and IGROV-1 SP cells and docetaxel (DTX) in PC3-DR and D145-DR cells.
# COS-7 (2 × 10^3 cells per well), IGROV-1 SP (2.5 × 10^3 cells per well), A2780 V SP (1.5 × 10^3 cells per well), PC3-DR (4 × 10^3 cells per well), and DU145-DR (3 × 10^3 cells per well) cells were seeded in 96-well plates in triplicates and after 24 h, the compounds were added at the respective concentrations. K562-R and K562 cells (2 × 10^4 cells per well), were treated with the compounds 2 h after seeding. […] A modified MTT colorimetric assay (EZ4U kit, Biomedica) was used to determine the metabolic activity of the tested cells, according to the manufacturer’s instructions. Absorbance was measured and the optical density of the respective FCS-containing medium and of the substrate was subtracted to exclude nonspecific staining. Metabolic activity in the absence of the compounds (CTR, DMSO) was set to 100% as reference.
# [1] = target: ABCB1 transporter in K562-R cells (Homo sapiens, UniProt P08183); assay: Side population (SP) analysis, DCV staining, flow cytometry; details: 10 μM
# Description: SP analyses were performed as previously described[45] on a LSRFortessa flow cytometer (BD Biosciences, Vienna, Austria). Briefly, 1 × 10^6 cells/mL were stained with 10 μM Vybrant DyeCycleTM Violet (DCV; Molecular Probes, Eugene, OR) in the presence or absence of the investigated compounds for 90 min at 37 °C. […] Subsequently, the cells were washed and immediately analyzed using flow cytometry. The FlowJo 9.6 software was used for data analyses (Tree Star Software, Ashland, CA).
# [2] = Body weight / tolerability in the K562-R xenograft study; details: for Body Weight, individual animal / Body Weight, group mean: PO QD x 30 days (imatinib 50 mg/kg, 7c 10 mg/kg); for Body Weight, individual animal: animals No. 1–7; for Body Weight, group mean: n = 7
# Chain of ABCB1 transporter in K562-R cells (P08183 whole entry): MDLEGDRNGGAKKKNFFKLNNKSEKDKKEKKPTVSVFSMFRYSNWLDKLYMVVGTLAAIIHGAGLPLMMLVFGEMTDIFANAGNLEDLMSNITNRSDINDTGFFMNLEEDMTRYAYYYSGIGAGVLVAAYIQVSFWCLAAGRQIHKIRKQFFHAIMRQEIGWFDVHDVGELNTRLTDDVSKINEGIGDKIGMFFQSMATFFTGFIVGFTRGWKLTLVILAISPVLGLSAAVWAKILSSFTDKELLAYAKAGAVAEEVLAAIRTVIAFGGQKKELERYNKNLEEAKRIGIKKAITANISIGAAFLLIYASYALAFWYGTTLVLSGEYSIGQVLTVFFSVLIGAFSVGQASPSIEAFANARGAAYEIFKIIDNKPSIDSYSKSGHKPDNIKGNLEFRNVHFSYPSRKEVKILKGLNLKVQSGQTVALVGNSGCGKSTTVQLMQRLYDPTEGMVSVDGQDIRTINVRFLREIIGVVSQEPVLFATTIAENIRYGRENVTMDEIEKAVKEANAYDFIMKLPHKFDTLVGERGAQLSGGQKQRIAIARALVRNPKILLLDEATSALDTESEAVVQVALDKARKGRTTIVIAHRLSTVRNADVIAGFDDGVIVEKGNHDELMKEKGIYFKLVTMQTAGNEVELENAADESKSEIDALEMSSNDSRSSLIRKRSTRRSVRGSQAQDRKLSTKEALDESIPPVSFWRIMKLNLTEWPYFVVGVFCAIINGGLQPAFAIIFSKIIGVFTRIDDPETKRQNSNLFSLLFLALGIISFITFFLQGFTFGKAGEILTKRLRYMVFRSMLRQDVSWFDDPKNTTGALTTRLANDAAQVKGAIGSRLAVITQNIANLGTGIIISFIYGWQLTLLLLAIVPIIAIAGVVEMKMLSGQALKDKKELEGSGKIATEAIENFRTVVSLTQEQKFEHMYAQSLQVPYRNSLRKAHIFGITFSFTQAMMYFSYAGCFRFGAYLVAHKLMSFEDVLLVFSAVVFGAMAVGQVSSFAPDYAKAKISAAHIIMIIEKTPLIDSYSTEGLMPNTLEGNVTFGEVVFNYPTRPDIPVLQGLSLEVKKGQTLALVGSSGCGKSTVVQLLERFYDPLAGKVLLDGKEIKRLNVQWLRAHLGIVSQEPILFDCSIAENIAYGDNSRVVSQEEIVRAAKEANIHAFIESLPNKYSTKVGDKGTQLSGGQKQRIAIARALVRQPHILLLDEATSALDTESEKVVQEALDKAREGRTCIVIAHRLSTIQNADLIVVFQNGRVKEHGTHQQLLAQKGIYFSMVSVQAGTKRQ
smiles,measurement,setting,value
"CCCc1nc2c(C)cc(-c3nc4ccccc4n3C)cc2n1Cc1ccc(-c2ccccc2C(=O)OC)cc1 [7b, Methyl 4′-((1,7′-dimethyl-2′-propyl-1H,3′H-[2,5′-bibenzo[d]imidazole]-3′-yl)methyl)-[1,1′-biphenyl]-2-carboxylate]",intracellular accumulation of imatinib,K562-R cells,notably restored
same,Caco2 permeability Papp A–B,Caco2 cells; apical to basolateral,0.1 10^–6 cms^–1
same,Caco2 permeability Papp B–A,Caco2 cells,0.2 10^–6 cms^–1
same,phosphorylation status of STAT5,STAT5,practically did not suppress pSTAT5
same,viability / antimetabolic effect in combination with PTX,IGROV-1 SP cells,inactive
same,effect on SP phenotype / ABCB1 activity,[1],completely repressed the SP phenotype
"CCCc1nc2c(C)cc(-c3nc4ccccc4n3C)cc2n1Cc1ccc(-c2ccccc2C(N)=O)cc1 [7c, 4′-((1,7′-Dimethyl-2′-propyl-1H,3′H-[2,5′-bibenzo[d]imidazole]-3′-yl)methyl)-[1,1′-biphenyl]-2-carboxamide]",intracellular accumulation of imatinib,K562-R cells,notably restored
same,Caco2 permeability Papp B–A,Caco2 cells,30.8 10^–6 cms^–1
same,tolerability,"[2]; 7c 10 mg/kg, imatinib 50 mg/kg, PO QD × 30 days",well tolerated
same,"Body Weight, individual animal",[2]; Day 1,23 g and 25 g and 26 g and 21 g
same,"Body Weight, group mean",[2]; Day 1,24.1 g
same,"Body Weight, individual animal",[2]; Day 5,23 g and 24 g and 25 g and 26 g and 21 g
same,"Body Weight, individual animal",[2]; Day 8,23 g and 22 g and 26 g and 28 g and 24 g
same,"Body Weight, group mean",[2]; Day 8,24.0 g
same,"Body Weight, individual animal",[2]; Day 12,23 g and 22 g and 25 g and 27 g and 24 g
same,"Body Weight, individual animal",[2]; Day 15,23 g and 22 g and 25 g and 27 g and 21 g
same,"Body Weight, group mean",[2]; Day 15,23.4 g
same,"Body Weight, individual animal",[2]; Day 19,23 g and 25 g and 22 g and 28 g
same,"Body Weight, individual animal",[2]; Day 22,24 g and 25 g and 23 g and 27 g and 22 g
same,"Body Weight, group mean",[2]; Day 22,24.1 g
same,"Body Weight, individual animal",[2]; Day 26,25 g and 26 g and 22 g and 27 g and 23 g
same,"Body Weight, individual animal",[2]; Day 29,23 g and 26 g and 21 g and 28 g and 24 g and 22 g
same,"Body Weight, individual animal",[2]; Day 33,24 g and 27 g and 22 g and 26 g and 28 g and 23 g
same,"Body Weight, group mean",[2]; Day 33,25.1 g
same,effect on SP phenotype / ABCB1 activity,[1],completely repressed the SP phenotype
